The values that follow come from ChEMBL document CHEMBL5360581, “Discovery of a novel dual functional phenylpyrazole-styryl hybrid that induces apoptotic and autophagic cell death in bladder cancer cells” (Eur J Med Chem, 2023).

For data set [1], the system named is EJ-28. As to the kind of experiment: Anticancer activity against human EJ-28 cells cultured as 3D spheroids assessed as decrease in spheroid size at 5 to 20 uM measured upto 5 days by fluorescence microscopic analysis. The format is functional, cell-based. As to conditions: dose 5-20 µM, time <= 5.0 day.
Data set [2] can be described thus: Toxicity in Zebrafish embryo assessed as oedema at 12.5 uM administered for 4 hrs post fertilization and measured after 3 days post fertilization. More on the design: species or system Danio rerio. As to conditions: in vivo, 72 h, time 3 day.
The test system of data set [3] is EJ-28. As to the kind of experiment: Induction of autophagy in human EJ-28 cells assessed as upregulation of Atg5-Atg12 expression at 5 to 12.5 uM incubated for 24 to 72 hrs by Western blot analysis. As to conditions: dose 5-12.5 µM, time 24-72 hrs. The format is functional, cell-based.
Data set [4] in a line: Selectivity index, ratio of IC50 for cytotoxicity against human NHDF cells to IC50 for cytotoxicity against human MCF7 cells. Format: toxicity, cell-based. As to conditions: NHDF cells and MCF7 cells, read-out: Ratio IC50.
Data set [5] is described as follows: Toxicity in Zebrafish embryo assessed as lack of pigmentation at 12.5 uM administered for 4 hrs post fertilization and measured after 3 days post fertilization. As to conditions: in vivo, 72 h, time 3 day. More on the design: species or system Danio rerio.
The subject of data set [6] is EJ-28. As to the kind of experiment: Induction of apoptosis in human EJ-28 cells assessed as upregulation of phosphorylated […] level incubated for 24 to 72 hrs by Western blotting analysis. Format: functional, cell-based. As to conditions: time 24-72 hrs.
For the next data set, the system named is HT-1080. As to the kind of experiment: Antiproliferative activity against human HT-1080 cells assessed as reduction in cell viability at 20 uM measured for 72 hrs by MTT assay. The format is functional, cell-based.
For data set [7], the system named is EJ-28. In words: Anticancer activity against human EJ-28 cells cultured as 3D spheroids at 2.5 to 20 uM measured upto 5 days by PI/Hoechst 33342 staining based fluorescence microscopic analysis. As to conditions: dose 2.5-20 µM, time <= 5.0 day. The format is functional, cell-based.
For data set [8], the system named is EJ-28. In words: Induction of apoptosis in human EJ-28 cells assessed as downregulation of procaspase-7 expression incubated for 24 to 72 hrs by Western blotting analysis. As to conditions: time 24-72 hrs. Format: functional, cell-based.
Data set [9] has as its system EJ-28. In words: Induction of apoptosis in human EJ-28 cells assessed as upregulation of Bcl-xL expression incubated for 24 hrs by Western blotting analysis. Format: functional, cell-based.
Data set [10] in a line: Toxicity in Zebrafish embryo assessed as delay in hatching at 12.5 to 50 uM administered for 4 hrs post fertilization and measured after 72 hours post fertilization. On the set-up: species or system Danio rerio. As to conditions: in vivo, dose 12.5-50 µM.
Data set [11] deals with EJ-28. As to the kind of experiment: Induction of cell cycle arrest in human EJ-28 cells assessed as accumulation of cells at S phase at 5 uM incubated for 48 hrs by propidium iodide staining based flow cytometry (reference value: 30%). Format: functional.

Each structure is given as a SMILES string. Calls of active or inactive are those of the source. The rule behind the calls is not given here.

`O=[N+]([O-])c1cccc(/C=C/c2cc(-c3cc(Cl)ccc3O)n(-c3ccccc3)n2)c1`: the outcome in the data set with EJ-28 [1], in the data set on EJ-28 [3], in the data set with EJ-28 [6], with HT-1080, in the data set with EJ-28 [7] and in the data set with EJ-28 [8] was Active. The Activity result is listed as “Non-Toxic” in [2], “Non-Toxic” in data set [5], “Non-Toxic” in data set [10] and 21% with EJ-28 [11]. Also, the selectivity ratio in data set [4] was found to be 2.6. Moreover, in the data set on EJ-28 [9], the outcome was inactive.
